# Tests used:
# [1] = X-ray diffraction solid state solubility of TFV in polymers; assay type: physicochemical; conditions: XRD of lyophilized polymer:TFV mass, pH 6-6.5
# Experimental: X-ray diffraction (XRD) was used to study the solid state solubility of TFV in a series of polymers like HPMC-E5, HEC, and NaCMC-LV. TFV and polymers were dissolved together in milliQ water on a magnetic stirrer to achieve various polymer to TFV (P:T) ratios. pH was adjusted to 6-6.5 using sodium hydroxide equimolar to TFV. The solutions were then lyophilized using a Freezone 6 lyophilizer (Labconco, MO, USA). The powder obtained after lyophilization was scanned on a Philips X-ray diffractometer between 5-50° 2θ. A 37-minute scan was obtained. Similarly obtained XRD scans for lyophilized pure polymers and lyophilized TFV (pH 6-6.5) served as controls.
# [2] = cited from earlier work
smiles,measurement,setting,value
"C[C@H](Cn1cnc2c(N)ncnc21)OCP(=O)(O)O [TFV, 9-[9(R)-2-(phosphonomethoxy)propyl]adenine]","P:T ratio at which HPMC-E5, HEC and NaCMC-LV were able to solubilize TFV",[1],≥ 3
same,"pKa, phosphate groups (first value)",[2],2.1
same,"pKa, phosphate groups (second value)",[2],4.3
same,"pKa, primary amine group",[2],7.3

# Source: patent US12453707B2, “Vaginal films” (priority 2017, dated 2025)
